Measured values as given in US9670204B2, “Compounds and pharmaceutical compositions thereof for the treatment of inflammatory disorders” (Galapagos NV, priority 2013, dated 2017).

Experiments:
hENPP2 [1] = biological target: T1, hENPP2 (UniProtKB/SwissProt Q13822) (Homo sapiens (Human), UniProt Q13822); assay: hENPP2 biochemical assay, LPC as substrate; settings: LPC (palmitoyl 16:0) as substrate
Outline: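 Human ENPP2 in 50 mM Tris-HCl pH 8.5, 500 mM NaCl, 5 mM KCl, 10 mM CaCl2, 0.1% fatty-acid-free BSA, reacted 30 min at 37 °C with LPC 16:0 (150 µM solution added 1:1). Released choline measured via choline oxidase/peroxidase/TOOS/4-aminoantipyrine quinoneimine dye at 555 nm; IC50 reported.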

hENPP2 [2] = biological target: T1, hENPP2; assay: fluorescent hENPP2 biochemical assay, FS-3 as substrate; settings: read-out: FS3-IC50
Outline: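 hENPP2 in 50 mM Tris-HCl pH 8.0, 250 mM NaCl, 5 mM KCl, 1 mM MgCl2, 1 mM CaCl2, 0.1% fatty-acid-free BSA, preincubated with compound 30 min at room temperature. The 0.75 μM FS-3 solution was added and the mixture incubated 30 min at 30° C. Fluorescence (ex 485/em 520 nm) gives IC50.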

LPA 18:2 in rat plasma = assay: Rat whole blood (plasma) LPA assay; format: biochemical; settings: 2 h at 37 C, LPA 18:2 by LC-MS/MS
Experimental: Whole blood is collected from rats or mouse by exsanguinations on sodium heparin tube, then after centrifugation at 3000 rpm for 15 min at 4° C., plasma is stored at −80° C. Compounds are diluted in DMSO in concentration dependent manner then 0.5 μL are dispensed into 96-well plate placed in ice. Plasma is defrosted on ice then 49.5 μL of plasma are added into the well containing 0.5 μL of compound (1% DMSO final). Plates are covered with a lid in polypropylene and incubated at +37° C., 5% CO2, for 2 h under gentle shaking (except controls which are stored at −20° C.).
At the end of the incubation, controls are defrosted in ice and transferred in the incubated plates for LC-MS/MS analysis with a non GLP-validated method. For the analysis, plasma proteins from a 10 μL incubated plates are precipitated with an excess of methanol containing the internal standard, LPA 17:0. After centrifugation, the corresponding supernatant is injected on a C18 column. Analytes are eluted out of the column under isocratic conditions. An API5500 QTRAP mass spectrometer (ABSciex™) is used for the detection of LPA 18:2. No calibration curve is prepared for LPA 18:2, however relative quantities are evaluated based on the peak area.

SMILES | IC50 (hENPP2 [1]) | IC50 (hENPP2 [2]) | IC50 (LPA 18:2 in rat plasma)
CCc1nc2ccc(N3CCS(=O)(=O)CC3)cn2c1N(C)c1nc(-c2ccc(F)cc2)cs1 [Compound 182, 4-(2-ethyl-3-((4-(4-fluorophenyl)thiazol-2-yl)(methyl)amino)imidazo[1,2-a]pyridin-6-yl)-thiomorpholine 1,1-dioxide] | > 1000 nM | 0.01 to 100 nM | > 1000 nM
CCc1nc2ccc(C3CCN(CC(=O)N4CC[C@@H](O)C4)CC3)cn2c1N(C)c1nc(-c2ccc(F)cc2)cs1 [Compound 111, (R)-2-(4-(2-ethyl-3-((4-(4-fluorophenyl)thiazol-2-yl)(methyl)amino)imidazo[1,2-a]pyridin-6-yl)piperidin-1-yl)-1-(3-hydroxypyrrolidin-1-yl)ethanone] | 100 to 500 nM | 0.01 to 100 nM | 500 to 1000 nM
CCc1nc2ccc(N3CCN(CCO)CC3)cn2c1N(C)c1nc(-c2ccc(F)cc2)cs1 [Compound 180, 2-(4-(2-ethyl-3-((4-(4-fluorophenyl)thiazol-2-yl)(methyl)amino)imidazo [1,2-a]pyridin-6-yl)piperazin-1-yl)ethanol] | > 1000 nM | 0.01 to 100 nM | > 1000 nM
CCc1nc2ccc(N3CCN(C(=O)[C@H](C)O)CC3)cn2c1N(C)c1nc(-c2ccc(F)cc2)cs1 [Compound 203, (S)-1-(4-(2-ethyl-3-((4-(4-fluorophenyl)thiazol-2-yl)(methyl)amino)imidazo[1,2-a]pyridin-6-yl)piperazin-1-yl)-2-hydroxypropan-1-one] | > 1000 nM | 0.01 to 100 nM | > 1000 nM
CCc1nc2ccc(N3CCN(Cc4ncco4)CC3)cn2c1N(C)c1nc(-c2ccc(F)cc2)cs1 [Compound 40] | > 1000 nM | 0.01 to 100 nM | 500 to 1000 nM
CCc1nc2ccc(N3CCN(S(C)(=O)=O)CC3)cn2c1N(C)c1nc(-c2ccc(Cl)cc2)ns1 [Compound 188, 3-(4-chlorophenyl)-N-(2-ethyl-6-(4-(methylsulfonyl)piperazin-1-yl)imidazo[1,2-a]pyridin-3-yl)-N-methyl-1,2,4-thiadiazol-5-amine] | > 1000 nM | 0.01 to 100 nM | > 1000 nM
CCc1nc2ccc(C3CCN(S(=O)(=O)CCCN(C)C)CC3)cn2c1N(C)c1nc(-c2ccc(F)cc2)cs1 [Compound 87, N-(6-(1-(3-(dimethylamino)propyl-sulfonyl)piperidin-4-yl)-2-ethylimidazo[1,2-a]pyridin-3-yl)-4-(4-fluorophenyl)-N-methylthiazol-2-amine] | 100 to 500 nM | 0.01 to 100 nM | 100 to 500 nM
CCc1nc2ccc(N3CCN(CCO)CC3)cn2c1N(C)c1nc(-c2ccc(Cl)cc2)cs1 [Compound 212, 2-(4-(3-((4-(4-chlorophenyl)thiazol-2-yl)(methyl)amino)-2-ethylimidazo[1,2-a]pyridin-6-yl)piperazin-1-yl)ethanol] | > 1000 nM | 0.01 to 100 nM | > 1000 nM
CCc1nc2ccc(N3CCN(C(=O)CCCN(C)C)CC3)cn2c1N(C)c1nc(-c2ccc(F)cc2)cs1 [Compound 53, 4-(dimethylamino)-1-(4-(2-ethyl-3-((4-(4-fluorophenyl)thiazol-2-yl)(methyl)amino)imidazo[1,2-a]pyridin-6-yl)piperazin-1-yl)butan-1-one] | > 1000 nM | 0.01 to 100 nM | > 1000 nM
CCc1nc2ccc(C3CCN(S(=O)(=O)CCCO)CC3)cn2c1N(C)c1nc(-c2ccc(F)cc2)cs1 [Compound 94, 3-[4-(2-Ethyl-3-{[4-(4-fluoro-phenyl)-thiazol-2-yl]-methyl-amino}-imidazo[1,2-a]pyridin-6-yl)-piperidine-1-sulfonyl]-propan-1-ol] | 500 to 1000 nM | 0.01 to 100 nM | 500 to 1000 nM

The remaining lines, values ahead:

IC50 (hENPP2 [1]) | IC50 (hENPP2 [2]) | IC50 (LPA 18:2 in rat plasma) | SMILES
100 to 500 nM | 0.01 to 100 nM | 100 to 500 nM | CCc1nc2ccc(C3CCN(S(=O)(=O)CCCN4CCOCC4)CC3)cn2c1N(C)c1nc(-c2ccc(F)cc2)cs1 [Compound 88, N-(2-ethyl-6-(1-(3-morpholinopropyl-sulfonyl)piperidin-4-yl)imidazo[1,2-a]pyridin-3-yl)-4-(4-fluorophenyl)-N-methylthiazol-2-amine]
100 to 500 nM | 0.01 to 100 nM | 100 to 500 nM | CCc1nc2c(C)cc(N3CCN(CC(=O)N4CC[C@@H](O)C4)CC3)cn2c1N(C)c1nc(-c2ccc(F)cc2)c(C#N)s1 [Compound 4, (R)-2-((2-ethyl-6-(4-(2-(3-hydroxypyrrolidin-1-yl)-2-oxoethyl)piperazin-1-yl)-8-methylimidazo[1,2-a]pyridin-3-yl)(methyl)amino)-4-(4-fluorophenyl)thiazole-5-carbonitrile]
100 to 500 nM | 0.01 to 100 nM | 100 to 500 nM | CCc1nc2ccc(C3CCN(CC(=O)N4CC(CO)C4)CC3)cn2c1N(C)c1nc(-c2ccc(F)cc2)cs1 [Compound 113, 2-(4-(2-ethyl-3-((4-(4-fluorophenyl)thiazol-2-yl)(methyl)amino)imidazo[1,2-a]pyridin-6-yl)piperidin-1-yl)-1-(3-(hydroxymethyl)azetidin-1-yl) ethanone]
0.01 to 100 nM | 0.01 to 100 nM | 100 to 500 nM | CCc1nc2ccc(C3CCN(CC(=O)N4CC(O)C4)CC3)cn2c1N(C)c1nc(-c2ccc(F)cc2)c(C(=O)C(F)(F)F)s1 [Compound 159, 1-(2-((2-ethyl-6-(1-(2-(3-hydroxyazetidin-1-yl)-2-oxoethyl)piperidin-4-yl)imidazo[1,2-a]pyridin-3-yl)(methyl)amino)-4-(4-fluorophenyl)thiazol-5-yl)-2,2,2-trifluoroethanone]
0.01 to 100 nM | 0.01 to 100 nM | 0.01 to 100 nM | CCc1nc2ccc(C3CCN(CC(=O)N4CC[C@H](O)C4)CC3)cn2c1N(C)c1nc(-c2ccc(F)cc2)c(C#N)s1 [Compound 143, (S)-2-((2-ethyl-6-(1-(2-(3-hydroxypyrrolidin-1-yl)-2-oxoethyl)piperidin-4-yl)imidazo[1,2-a]pyridin-3-yl)(methyl)amino)-4-(4-fluorophenyl)thiazole-5-carbonitrile]
0.01 to 100 nM | 0.01 to 100 nM | 500 to 1000 nM | CCc1nc2ccc(N3CCN(CC(=O)N4CC(O)C4)CC3)cn2c1N(C)c1nc(-c2ccc(F)cc2C#N)cs1 [Compound 166, 2-(2-((2-ethyl-6-(4-(2-(3-hydroxyazetidin-1-yl)-2-oxoethyl)piperazin-1-yl)imidazo[1,2-a]pyridin-3-yl)(methyl)amino)thiazol-4-yl)-5-fluorobenzonitrile]
500 to 1000 nM | 0.01 to 100 nM | > 1000 nM | CCc1nc2ccc(N3CCN(Cc4cnc[nH]4)CC3)cn2c1N(C)c1nc(-c2ccc(F)cc2)cs1 [Compound 192, N-(6-(4-((1H-imidazol-5-yl)methyl)piperazin-1-yl)-2-ethylimidazo[1,2-a]pyridin-3-yl)-4-(4-fluorophenyl)-N-methylthiazol-2-amine]
0.01 to 100 nM | 0.01 to 100 nM | 0.01 to 100 nM | CN(C)C(=O)CN1CCC(c2ccc3nc(CCC#N)c(N(C)c4nc(-c5ccc(F)cc5)cs4)n3c2)CC1 [Compound 174, 2-(4-(2-(2-cyanoethyl)-3-((4-(4-fluorophenyl)thiazol-2-yl)(methyl)amino)imidazo[1,2-a]pyridin-6-yl)piperidin-1-yl)-N,N-dimethylacetamide]
0.01 to 100 nM | 0.01 to 100 nM | 0.01 to 100 nM | CCc1nc2ccc(C3CCN(CC(=O)N(C)C)CC3)cn2c1N(C)c1nc(-c2ccc(F)cc2)c(C#N)s1 [Compound 145, 2-(4-(3-((5-cyano-4-(4-fluorophenyl)thiazol-2-yl)(methyl)amino)-2-ethylimidazo[1,2-a]pyridin-6-yl)piperidin-1-yl)-N,N-dimethylacetamide]
0.01 to 100 nM | 0.01 to 100 nM | 0.01 to 100 nM | CCc1nc2ccc(N3CCN(CC(=O)N4CC(O)C4)CC3)cn2c1N(C)c1nc(-c2ccc(F)cc2)c(C#N)s1 [Compound 138, 2-((2-ethyl-6-(4-(2-(3-hydroxyazetidin-1-yl)-2-oxoethyl)piperazin-1-yl)imidazo[1,2-a]pyridin-3-yl)(methyl)amino)-4-(4-fluorophenyl)thiazole-5-carbonitrile]
100 to 500 nM | 0.01 to 100 nM | 0.01 to 100 nM | CCc1nc2ccc(C3CCN(S(C)(=O)=O)CC3)cn2c1N(C)c1nc(-c2ccc(F)cc2C#N)cs1 [Compound 96, 2-(2-((2-ethyl-6-(1-(methylsulfonyl)piperidin-4-yl)imidazo [1,2-a]pyridin-3-yl)(methyl)amino)thiazol-4-yl)-5-fluorobenzonitrile]
